Data from patent US8389523B2, “Substituted quinoxaline and an agrochemical composition thereof” (Kumiai Chemical Industry Co., Ltd., priority 2007, dated 2013).

What was measured:
Type in all cases: in vivo
Parameters in all cases: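 grade 0 to 5 of growth suppression where 5 is 90% or more and 0 below 10%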
[1] = system: Monochoria vaginalis (Burm. f.) Presl var. plantaginea (Roxb.) Solms-Laub.; test: Herbicidal effects in paddy field soil treatment (Test Example 1); conditions: paddy field soil treatment; 1000 g of the active ingredient per hectare; wettable powder added dropwise on water surface; 21st day after treatment
Outline: (§1)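 Application rate 1000 g a.i./ha, delivered as water-diluted wettable powder onto flooded (3 cm) paddy soil one day after sowing. Plants kept in a greenhouse and evaluated for herbicidal effect on day 21 post-treatment.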

[2] = system: Scirpus juncoides Roxb. var. ohwianus. T. Koyama; test: as above; conditions: paddy field soil treatment; 1000 g of the active ingredient per hectare; wettable powder added dropwise on water surface; 21st day after treatment
Outline: as §1

[3] = system: Echinochloa oryzicola Vasing; test: as above; conditions: paddy field soil treatment; 1000 g of the active ingredient per hectare; wettable powder added dropwise on water surface; 21st day after treatment
Outline: as §1

Amaranthus viridis L. [4] = test: Herbicidal effects in upland field foliar treatment (Test Example 3); conditions: criteria of Table 138; for herbicidal effects on Amaranthus viridis L.: 1000 g of the active ingredient per hectare, 14th day after the treatment, wettable powder; for herbicidal effect (index) on Amaranthus viridis L.: 1000 g active ingredient per hectare, 14th day after treatment
Outline: (§2)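 Foliar spray of diluted wettable powder, 1000 g a.i./ha in 1000 L/ha, onto two-week-old greenhouse-grown seedlings in upland field soil. Plants kept in the greenhouse, with effect rated on a criteria scale at day 14.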

[5] = system: Echinochloa crus-galli (L.) P. Beauv. var. crus-galli; test: as above; conditions: criteria of Table 138; for herbicidal effects on Echinochloa crus-galli (L.) P. Beauv. var. crus-galli: 1000 g of the active ingredient per hectare, 14th day after the treatment, wettable powder; for herbicidal effect (index) on Echinochloa crus-galli (L.) P. Beauv. var. crus-galli: 1000 g active ingredient per hectare, 14th day after treatment
Outline: as §2

[6] = system: Abutilon theophrasti medicus; test: as above; conditions: criteria of Table 138; for herbicidal effects on Abutilon theophrasti medicus: 1000 g of the active ingredient per hectare, 14th day after the treatment, wettable powder; for herbicidal effect (index) on Abutilon theophrasti medicus: 1000 g active ingredient per hectare, 14th day after treatment
Outline: as §2

Amaranthus viridis L. [7] = test: Herbicidal effects in upland field soil treatment (Test Example 2); conditions: 1000 g active ingredient per hectare, 21st day after treatment, criteria of Table 138
Outline: (§3)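 Herbicidal effect graded 21 days after treatment, plants kept in greenhouse. Treatment was a soil-surface spray of wettable powder in water, 1000 g a.i./ha in 1000 L/ha, applied after sowing and covering seeds.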

[8] = system: Abutilon theophrasti medicus; test: as above; conditions: 1000 g active ingredient per hectare, 21st day after treatment, criteria of Table 138
Outline: as §3

O=C1CCCC(O)=C1C(=O)c1nc2ccccc2n(-c2ccc3c(c2)COC3)c1=O [II-224]
4: Herbicidal effects index, Echinochloa oryzicola Vasing [3]
5: Herbicidal effects index, Monochoria vaginalis (Burm. f.) Presl var. plantaginea (Roxb.) Solms-Laub. [1] | Herbicidal effects index, Scirpus juncoides Roxb. var. ohwianus. T. Koyama [2] | herbicidal effects on Amaranthus viridis L. (Amaranthus viridis L. [4]) | herbicidal effects on Echinochloa crus-galli (L.) P. Beauv. var. crus-galli [5] | herbicidal effects on Abutilon theophrasti medicus [6] | herbicidal effect (index) on Amaranthus viridis L. (Amaranthus viridis L. [7]) | herbicidal effect (index) on Abutilon theophrasti medicus [8]

Cc1cccc2c1nc(C(=O)C1=C(O)CCCC1=O)c(=O)n2-c1ccccc1 [II-244]
5: Herbicidal effects index, Monochoria vaginalis (Burm. f.) Presl var. plantaginea (Roxb.) Solms-Laub. [1] | Herbicidal effects index, Scirpus juncoides Roxb. var. ohwianus. T. Koyama [2] | Herbicidal effects index, Echinochloa oryzicola Vasing [3] | herbicidal effects on Amaranthus viridis L. (Amaranthus viridis L. [4]) | herbicidal effects on Echinochloa crus-galli (L.) P. Beauv. var. crus-galli [5] | herbicidal effects on Abutilon theophrasti medicus [6] | herbicidal effect (index) on Amaranthus viridis L. (Amaranthus viridis L. [7]) | herbicidal effect (index) on Abutilon theophrasti medicus [8]

CCCn1c(=O)c(C(=O)C2=C(O)CCCC2=O)nc2ccccc21 [Compound I-12]
4: herbicidal effect (index) on Echinochloa crus-galli (L.) P. Beauv. var. crus-galli [5]
5: Herbicidal effects index, Monochoria vaginalis (Burm. f.) Presl var. plantaginea (Roxb.) Solms-Laub. [1] | Herbicidal effects index, Scirpus juncoides Roxb. var. ohwianus. T. Koyama [2] | Herbicidal effects index, Echinochloa oryzicola Vasing [3] | herbicidal effect (index) on Amaranthus viridis L. (Amaranthus viridis L. [4]) | herbicidal effect (index) on Abutilon theophrasti medicus [6] | herbicidal effect (index) on Amaranthus viridis L. (Amaranthus viridis L. [7]) | herbicidal effect (index) on Abutilon theophrasti medicus [8]

COc1cc(-n2c(=O)c(C(=O)C3=C(O)CCCC3=O)nc3ccccc32)ccc1Cl [II-167]
5: Herbicidal effects index, Monochoria vaginalis (Burm. f.) Presl var. plantaginea (Roxb.) Solms-Laub. [1] | Herbicidal effects index, Scirpus juncoides Roxb. var. ohwianus. T. Koyama [2] | Herbicidal effects index, Echinochloa oryzicola Vasing [3] | herbicidal effects on Amaranthus viridis L. (Amaranthus viridis L. [4]) | herbicidal effects on Echinochloa crus-galli (L.) P. Beauv. var. crus-galli [5] | herbicidal effects on Abutilon theophrasti medicus [6] | herbicidal effect (index) on Amaranthus viridis L. (Amaranthus viridis L. [7]) | herbicidal effect (index) on Abutilon theophrasti medicus [8]

O=C1CCCC(O)=C1C(=O)c1nc2cc(F)ccc2n(-c2ccc3c(c2)OCO3)c1=O [II-239]
4: herbicidal effects on Echinochloa crus-galli (L.) P. Beauv. var. crus-galli [5]
5: Herbicidal effects index, Monochoria vaginalis (Burm. f.) Presl var. plantaginea (Roxb.) Solms-Laub. [1] | Herbicidal effects index, Scirpus juncoides Roxb. var. ohwianus. T. Koyama [2] | Herbicidal effects index, Echinochloa oryzicola Vasing [3] | herbicidal effects on Amaranthus viridis L. (Amaranthus viridis L. [4]) | herbicidal effects on Abutilon theophrasti medicus [6] | herbicidal effect (index) on Amaranthus viridis L. (Amaranthus viridis L. [7]) | herbicidal effect (index) on Abutilon theophrasti medicus [8]

N#CCCOCn1c(=O)c(C(=O)C2=C(O)CCCC2=O)nc2ccccc21 [I-68]
5: Herbicidal effects index, Monochoria vaginalis (Burm. f.) Presl var. plantaginea (Roxb.) Solms-Laub. [1] | Herbicidal effects index, Scirpus juncoides Roxb. var. ohwianus. T. Koyama [2] | herbicidal effect (index) on Amaranthus viridis L. (Amaranthus viridis L. [4]) | herbicidal effect (index) on Abutilon theophrasti medicus [6] | herbicidal effect (index) on Amaranthus viridis L. (Amaranthus viridis L. [7]) | herbicidal effect (index) on Abutilon theophrasti medicus [8]
4: Herbicidal effects index, Echinochloa oryzicola Vasing [3] | herbicidal effect (index) on Echinochloa crus-galli (L.) P. Beauv. var. crus-galli [5]

Cc1ccc(-n2c(=O)c(C(=O)C3=C(O)CCCC3=O)nc3ccccc32)cc1 [II-21]
5: Herbicidal effects index, Monochoria vaginalis (Burm. f.) Presl var. plantaginea (Roxb.) Solms-Laub. [1] | Herbicidal effects index, Scirpus juncoides Roxb. var. ohwianus. T. Koyama [2] | Herbicidal effects index, Echinochloa oryzicola Vasing [3] | herbicidal effects on Amaranthus viridis L. (Amaranthus viridis L. [4]) | herbicidal effects on Echinochloa crus-galli (L.) P. Beauv. var. crus-galli [5] | herbicidal effects on Abutilon theophrasti medicus [6] | herbicidal effect (index) on Amaranthus viridis L. (Amaranthus viridis L. [7]) | herbicidal effect (index) on Abutilon theophrasti medicus [8]

Cn1nc(-n2c(=O)c(C(=O)C3=C(O)CCCC3=O)nc3ccccc32)cc1C(F)(F)F [I-267]
5: Herbicidal effects index, Monochoria vaginalis (Burm. f.) Presl var. plantaginea (Roxb.) Solms-Laub. [1] | Herbicidal effects index, Scirpus juncoides Roxb. var. ohwianus. T. Koyama [2] | Herbicidal effects index, Echinochloa oryzicola Vasing [3] | herbicidal effect (index) on Amaranthus viridis L. (Amaranthus viridis L. [4]) | herbicidal effect (index) on Echinochloa crus-galli (L.) P. Beauv. var. crus-galli [5] | herbicidal effect (index) on Abutilon theophrasti medicus [6] | herbicidal effect (index) on Amaranthus viridis L. (Amaranthus viridis L. [7]) | herbicidal effect (index) on Abutilon theophrasti medicus [8]

O=C1CCCC(O)=C1C(=O)c1nc2ccc(F)cc2n(-c2ccc3c(c2)OCCO3)c1=O [II-242]
4: herbicidal effects on Abutilon theophrasti medicus [6] | herbicidal effect (index) on Abutilon theophrasti medicus [8]
5: Herbicidal effects index, Monochoria vaginalis (Burm. f.) Presl var. plantaginea (Roxb.) Solms-Laub. [1] | Herbicidal effects index, Scirpus juncoides Roxb. var. ohwianus. T. Koyama [2] | Herbicidal effects index, Echinochloa oryzicola Vasing [3] | herbicidal effects on Amaranthus viridis L. (Amaranthus viridis L. [4]) | herbicidal effects on Echinochloa crus-galli (L.) P. Beauv. var. crus-galli [5] | herbicidal effect (index) on Amaranthus viridis L. (Amaranthus viridis L. [7])

CSCn1c(=O)c(C(=O)C2=C(O)CCCC2=O)nc2ccccc21 [I-70]
5: Herbicidal effects index, Monochoria vaginalis (Burm. f.) Presl var. plantaginea (Roxb.) Solms-Laub. [1] | Herbicidal effects index, Scirpus juncoides Roxb. var. ohwianus. T. Koyama [2] | Herbicidal effects index, Echinochloa oryzicola Vasing [3] | herbicidal effect (index) on Amaranthus viridis L. (Amaranthus viridis L. [4]) | herbicidal effect (index) on Echinochloa crus-galli (L.) P. Beauv. var. crus-galli [5] | herbicidal effect (index) on Abutilon theophrasti medicus [6] | herbicidal effect (index) on Amaranthus viridis L. (Amaranthus viridis L. [7]) | herbicidal effect (index) on Abutilon theophrasti medicus [8]

O=C1CCCC(O)=C1C(=O)c1nc2ccc(F)cc2n(-c2ccc3c(c2)OCO3)c1=O [II-225]
5: Herbicidal effects index, Monochoria vaginalis (Burm. f.) Presl var. plantaginea (Roxb.) Solms-Laub. [1] | Herbicidal effects index, Scirpus juncoides Roxb. var. ohwianus. T. Koyama [2] | Herbicidal effects index, Echinochloa oryzicola Vasing [3] | herbicidal effects on Amaranthus viridis L. (Amaranthus viridis L. [4]) | herbicidal effects on Echinochloa crus-galli (L.) P. Beauv. var. crus-galli [5] | herbicidal effects on Abutilon theophrasti medicus [6] | herbicidal effect (index) on Amaranthus viridis L. (Amaranthus viridis L. [7]) | herbicidal effect (index) on Abutilon theophrasti medicus [8]

COc1ccc2nc(C(=O)C3=C(O)CCCC3=O)c(=O)n(-c3ccc(OC(F)F)cc3)c2c1 [II-305]
5: Herbicidal effects index, Monochoria vaginalis (Burm. f.) Presl var. plantaginea (Roxb.) Solms-Laub. [1] | Herbicidal effects index, Scirpus juncoides Roxb. var. ohwianus. T. Koyama [2] | Herbicidal effects index, Echinochloa oryzicola Vasing [3] | herbicidal effects on Amaranthus viridis L. (Amaranthus viridis L. [4]) | herbicidal effects on Echinochloa crus-galli (L.) P. Beauv. var. crus-galli [5] | herbicidal effects on Abutilon theophrasti medicus [6] | herbicidal effect (index) on Amaranthus viridis L. (Amaranthus viridis L. [7]) | herbicidal effect (index) on Abutilon theophrasti medicus [8]

CCOc1cc(-n2c(=O)c(C(=O)C3=C(O)CCCC3=O)nc3ccccc32)ccc1OC [II-217]
4: Herbicidal effects index, Echinochloa oryzicola Vasing [3] | herbicidal effects on Echinochloa crus-galli (L.) P. Beauv. var. crus-galli [5]
5: Herbicidal effects index, Monochoria vaginalis (Burm. f.) Presl var. plantaginea (Roxb.) Solms-Laub. [1] | Herbicidal effects index, Scirpus juncoides Roxb. var. ohwianus. T. Koyama [2] | herbicidal effects on Amaranthus viridis L. (Amaranthus viridis L. [4]) | herbicidal effects on Abutilon theophrasti medicus [6] | herbicidal effect (index) on Amaranthus viridis L. (Amaranthus viridis L. [7]) | herbicidal effect (index) on Abutilon theophrasti medicus [8]

O=C(C1=C(O)C2CCC(C2)C1=O)c1nc2ccccc2n(-c2ccccc2)c1=O (stereo not drawn) [II-4]
4: herbicidal effect (index) on Echinochloa crus-galli (L.) P. Beauv. var. crus-galli [5] | herbicidal effect (index) on Abutilon theophrasti medicus [8]
5: Herbicidal effects index, Monochoria vaginalis (Burm. f.) Presl var. plantaginea (Roxb.) Solms-Laub. [1] | Herbicidal effects index, Scirpus juncoides Roxb. var. ohwianus. T. Koyama [2] | Herbicidal effects index, Echinochloa oryzicola Vasing [3] | herbicidal effect (index) on Amaranthus viridis L. (Amaranthus viridis L. [4]) | herbicidal effect (index) on Abutilon theophrasti medicus [6] | herbicidal effect (index) on Amaranthus viridis L. (Amaranthus viridis L. [7])

O=C1CCCC(O)=C1C(=O)c1nc2ccccc2n(-c2ccccn2)c1=O [I-171]
5: Herbicidal effects index, Monochoria vaginalis (Burm. f.) Presl var. plantaginea (Roxb.) Solms-Laub. [1] | Herbicidal effects index, Scirpus juncoides Roxb. var. ohwianus. T. Koyama [2] | Herbicidal effects index, Echinochloa oryzicola Vasing [3] | herbicidal effect (index) on Amaranthus viridis L. (Amaranthus viridis L. [4]) | herbicidal effect (index) on Echinochloa crus-galli (L.) P. Beauv. var. crus-galli [5] | herbicidal effect (index) on Abutilon theophrasti medicus [6] | herbicidal effect (index) on Amaranthus viridis L. (Amaranthus viridis L. [7]) | herbicidal effect (index) on Abutilon theophrasti medicus [8]

O=C1CCCC(O)=C1C(=O)c1nc2cccnc2n(CCF)c1=O [III-45]
5: Herbicidal effects index, Monochoria vaginalis (Burm. f.) Presl var. plantaginea (Roxb.) Solms-Laub. [1] | Herbicidal effects index, Scirpus juncoides Roxb. var. ohwianus. T. Koyama [2] | herbicidal effects on Amaranthus viridis L. (Amaranthus viridis L. [4]) | herbicidal effects on Echinochloa crus-galli (L.) P. Beauv. var. crus-galli [5] | herbicidal effects on Abutilon theophrasti medicus [6] | herbicidal effect (index) on Amaranthus viridis L. (Amaranthus viridis L. [7])
4: Herbicidal effects index, Echinochloa oryzicola Vasing [3] | herbicidal effect (index) on Abutilon theophrasti medicus [8]

Cc1cc(-n2c(=O)c(C(=O)C3=C(O)CCCC3=O)nc3ccccc32)no1 [I-145]
5: Herbicidal effects index, Monochoria vaginalis (Burm. f.) Presl var. plantaginea (Roxb.) Solms-Laub. [1] | Herbicidal effects index, Scirpus juncoides Roxb. var. ohwianus. T. Koyama [2] | Herbicidal effects index, Echinochloa oryzicola Vasing [3] | herbicidal effect (index) on Amaranthus viridis L. (Amaranthus viridis L. [4]) | herbicidal effect (index) on Echinochloa crus-galli (L.) P. Beauv. var. crus-galli [5] | herbicidal effect (index) on Abutilon theophrasti medicus [6] | herbicidal effect (index) on Amaranthus viridis L. (Amaranthus viridis L. [7]) | herbicidal effect (index) on Abutilon theophrasti medicus [8]

CCOCn1c(=O)c(C(=O)C2=C(O)CCCC2=O)nc2ccccc21 [I-50]
4: herbicidal effect (index) on Echinochloa crus-galli (L.) P. Beauv. var. crus-galli [5]
5: Herbicidal effects index, Monochoria vaginalis (Burm. f.) Presl var. plantaginea (Roxb.) Solms-Laub. [1] | Herbicidal effects index, Scirpus juncoides Roxb. var. ohwianus. T. Koyama [2] | Herbicidal effects index, Echinochloa oryzicola Vasing [3] | herbicidal effect (index) on Amaranthus viridis L. (Amaranthus viridis L. [4]) | herbicidal effect (index) on Abutilon theophrasti medicus [6] | herbicidal effect (index) on Amaranthus viridis L. (Amaranthus viridis L. [7]) | herbicidal effect (index) on Abutilon theophrasti medicus [8]
